Measurements published in patent US20260234159A1, “SMALL MOLECULE TREATMENT OF FATTY LIVER DISEASE AND HCC” (SCANDIEDGE THERAPEUTICS AB, priority 2023, published 2026).

Experiments:
[1] = MTT cell viability after one week steatosis (ranking of target molecules); type: cell-based, human; settings: human, HepG2 cells (wild type); HepG2, 10 μM, one week steatosis induce media, MTT; Control 100.00
Outline: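 HepG2 cells, 60,000 per well, kept one week in steatosis medium (high-glucose DMEM, 10 μg/ml insulin, 10 μM T0901317) with 10 μM compound. Medium changed at day 0, 3 and 5. Viability measured by MTT.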

[2] = MTT cell viability / IC50 in growth media; type: cell-based, human; settings: human, HepG2 cells, 10 μM; for viability at 2 days, 10 µM: treatment for 2 days
HepG2 cells = test: MTT cell viability / IC50 in growth media; type: cell-based, human; settings: for IC50: Homo sapiens, 48 h, HepG2, treatment for 2 days
[3] = In vivo toxicological study in rats: haematology; set-up: species or system rats of the Wistar strain
Procedure: Forty-two male and forty-two female rats of the Wistar strain were allocated to the study. Three groups of three males and three females were given doses of 30, 100 and 300 mg/kg of target compounds (Table 8). The vehicle was 1.5 w/w % HPMC, 1.5 w/w % PS80 in 10 mM PBS, pH 7 and dose volume were 5 mL/kg. The animals were acclimatised at least 14 day prior to the study and exposed to a 12 hours light, 12 hours dark light cycle. The formulations were administered via oral gavage. Administration occurred once daily in the morning for seven consecutive days. Blood for scheduled haematology and plasma chemistry were taken at necropsy. For plasma chemistry, 0.6 ml blood (lithium heparin) per animal and for haematology, 0.5 ml blood (K2EDTA) per animal. The blood and plasma were analysed using Exigo analyzer and Vetscan equipment. Blood was analysed within 60 min of sampling. On the morning of analysis, the Exigo analyzer was checked against a reference sample provided by the manufacturer, and a control sample analysis cycle was performed (Table 9).

[4] = female, 30 mg/kg oral daily 7 d
[5] = female, 100 mg/kg oral daily 7 d
[6] = female, 300 mg/kg oral daily 7 d

N#Cc1c(NC(=O)c2cccc3ccccc23)sc2c1CCCC2 [JNK-IN-5A, N-(3-cyano-4,5,6,7-tetrahydrobenzo[b]thiophen-2-yl)-1-naphthamide]
viability at 1 week, 10 µM [1]: 56.4%
viability at 2 days, 10 µM [2]: 59.7%
dose dependence of cell viability (HepG2 cells; 30 μM to 30 nM): non-dose-dependent, linear reduction in cell viability
IC50 (HepG2 cells; 30 μM to 30 nM): 36.4 µM

COc1ccc(C(=O)Nc2sc3c(c2C#N)CCCCC3)cc1OC [PKL-A135, N-(3-cyano-5,6,7,8-tetrahydro-4H-cyclohepta[b]thiophen-2-yl)-3,4-dimethoxy-benzamide]
viability at 1 week, 10 µM [1]: 63.2%
GRAN [3, 4]: 0.97 10^9/l
HCT [3, 4]: 41.7%
HGB [3, 4]: 14.2 g/dL
LYM [3, 4]: 5.4 10^9/l
MCH [3, 4]: 19.5 pg
MCHC [3, 4]: 34.1 g/dL
MCV [3, 4]: 57.4 fL
MONO [3, 4]: 0.17 10^9/l
PLT [3, 4]: 1014 10^9/l
RBC [3, 4]: 7.26 10^12/l
RDW % [3, 4]: 14.2%
WBC [3, 4]: 6.6 10^9/l
GRAN [3, 5]: 1.33 10^9/l
HCT [3, 5]: 42.1%
HGB [3, 5]: 14.4 g/dL
LYM [3, 5]: 6.7 10^9/l
MCH [3, 5]: 19.9 pg
MCHC [3, 5]: 34.1 g/dL
MCV [3, 5]: 58.4 fL
MONO [3, 5]: 0.27 10^9/l
PLT [3, 5]: 978 10^9/l
RBC [3, 5]: 7.21 10^12/l
RDW % [3, 5]: 13.7%
WBC [3, 5]: 8.3 10^9/l
GRAN [3, 6]: 1.10 10^9/l
HCT [3, 6]: 42.8%
HGB [3, 6]: 14.7 g/dL
LYM [3, 6]: 5.1 10^9/l
MCH [3, 6]: 20.8 pg
MCHC [3, 6]: 34.2 g/dL
MCV [3, 6]: 60.8 fL
MONO [3, 6]: 0.20 10^9/l
PLT [3, 6]: 1011 10^9/l
RBC [3, 6]: 7.04 10^12/l
RDW % [3, 6]: 13.8%
WBC [3, 6]: 6.4 10^9/l
GRAN ([3]; male, 30 mg/kg oral daily 7 d): 1.83 10^9/l
HCT ([3]; male, 30 mg/kg oral daily 7 d): 44.3%
HGB ([3]; male, 30 mg/kg oral daily 7 d): 15 g/dL
LYM ([3]; male, 30 mg/kg oral daily 7 d): 6.5 10^9/l
MCH ([3]; male, 30 mg/kg oral daily 7 d): 19.7 pg
MCHC ([3]; male, 30 mg/kg oral daily 7 d): 33.9 g/dL
MCV ([3]; male, 30 mg/kg oral daily 7 d): 58.2 fL
MONO ([3]; male, 30 mg/kg oral daily 7 d): 0.30 10^9/l
PLT ([3]; male, 30 mg/kg oral daily 7 d): 841 10^9/l
RBC ([3]; male, 30 mg/kg oral daily 7 d): 7.62 10^12/l
RDW % ([3]; male, 30 mg/kg oral daily 7 d): 14.1%
WBC ([3]; male, 30 mg/kg oral daily 7 d): 8.6 10^9/l
GRAN ([3]; male, 100 mg/kg oral daily 7 d): 1.17 10^9/l
HCT ([3]; male, 100 mg/kg oral daily 7 d): 43.2%
HGB ([3]; male, 100 mg/kg oral daily 7 d): 14.6 g/dL
LYM ([3]; male, 100 mg/kg oral daily 7 d): 6.1 10^9/l
MCH ([3]; male, 100 mg/kg oral daily 7 d): 19.6 pg
MCHC ([3]; male, 100 mg/kg oral daily 7 d): 33.7 g/dL
MCV ([3]; male, 100 mg/kg oral daily 7 d): 58.1 fL
MONO ([3]; male, 100 mg/kg oral daily 7 d): 0.17 10^9/l
PLT ([3]; male, 100 mg/kg oral daily 7 d): 815 10^9/l
RBC ([3]; male, 100 mg/kg oral daily 7 d): 7.43 10^12/l
RDW % ([3]; male, 100 mg/kg oral daily 7 d): 14.4%
WBC ([3]; male, 100 mg/kg oral daily 7 d): 7.4 10^9/l
GRAN ([3]; male, 300 mg/kg oral daily 7 d): 1.13 10^9/l
HCT ([3]; male, 300 mg/kg oral daily 7 d): 43.8%
HGB ([3]; male, 300 mg/kg oral daily 7 d): 14.9 g/dL
LYM ([3]; male, 300 mg/kg oral daily 7 d): 6.2 10^9/l
MCH ([3]; male, 300 mg/kg oral daily 7 d): 20.7 pg
MCHC ([3]; male, 300 mg/kg oral daily 7 d): 34 g/dL
MCV ([3]; male, 300 mg/kg oral daily 7 d): 60.9 fL
MONO ([3]; male, 300 mg/kg oral daily 7 d): 0.20 10^9/l
PLT ([3]; male, 300 mg/kg oral daily 7 d): 924 10^9/l
RBC ([3]; male, 300 mg/kg oral daily 7 d): 7.20 10^12/l
RDW % ([3]; male, 300 mg/kg oral daily 7 d): 14.0%
WBC ([3]; male, 300 mg/kg oral daily 7 d): 7.5 10^9/l
viability at 4 day, 10 µM ([2]; day 4): 15.9%
viability at 2 days, 10 µM [2]: 43.1%
IC50 (HepG2 cells; 30 μM to 30 nM): 12 µM
cell viability of HepG2 cells (HepG2 cells; especially in cancerous media): significantly low cell viability

COc1ccccc1NC(=O)N1CCc2c(sc(NC(=O)c3cccc4ccccc34)c2C#N)C1 [PKL-A152]
viability at 1 week, 10 µM [1]: 43.9%
GRAN [3, 4]: 1.00 10^9/l
HCT [3, 4]: 41.5%
HGB [3, 4]: 14.1 g/dL
LYM [3, 4]: 5.6 10^9/l
MCH [3, 4]: 19.5 pg
MCHC [3, 4]: 34.1 g/dL
MCV [3, 4]: 57.2 fL
MONO [3, 4]: 0.17 10^9/l
PLT [3, 4]: 1089 10^9/l
RBC [3, 4]: 7.24 10^12/l
RDW % [3, 4]: 13.9%
WBC [3, 4]: 6.8 10^9/l
GRAN [3, 5]: 1.20 10^9/l
HCT [3, 5]: 42.0%
HGB [3, 5]: 14.3 g/dL
LYM [3, 5]: 5.7 10^9/l
MCH [3, 5]: 19.5 pg
MCHC [3, 5]: 34 g/dL
MCV [3, 5]: 57.4 fL
MONO [3, 5]: 0.17 10^9/l
PLT [3, 5]: 1122 10^9/l
RBC [3, 5]: 7.32 10^12/l
RDW % [3, 5]: 14.0%
WBC [3, 5]: 7.1 10^9/l
GRAN [3, 6]: 1.03 10^9/l
HCT [3, 6]: 42.9%
HGB [3, 6]: 14.7 g/dL
LYM [3, 6]: 4.8 10^9/l
MCH [3, 6]: 19.7 pg
MCHC [3, 6]: 34.1 g/dL
MCV [3, 6]: 57.7 fL
MONO [3, 6]: 0.23 10^9/l
PLT [3, 6]: 1062 10^9/l
RBC [3, 6]: 7.43 10^12/l
RDW % [3, 6]: 14.1%
WBC [3, 6]: 6.0 10^9/l
GRAN ([3]; male, 30 mg/kg oral daily 7 d): 1.50 10^9/l
HCT ([3]; male, 30 mg/kg oral daily 7 d): 46.3%
HGB ([3]; male, 30 mg/kg oral daily 7 d): 15.6 g/dL
LYM ([3]; male, 30 mg/kg oral daily 7 d): 5.9 10^9/l
MCH ([3]; male, 30 mg/kg oral daily 7 d): 19.6 pg
MCHC ([3]; male, 30 mg/kg oral daily 7 d): 33.8 g/dL
MCV ([3]; male, 30 mg/kg oral daily 7 d): 58.0 fL
MONO ([3]; male, 30 mg/kg oral daily 7 d): 0.23 10^9/l
PLT ([3]; male, 30 mg/kg oral daily 7 d): 922 10^9/l
RBC ([3]; male, 30 mg/kg oral daily 7 d): 7.97 10^12/l
RDW % ([3]; male, 30 mg/kg oral daily 7 d): 14.2%
WBC ([3]; male, 30 mg/kg oral daily 7 d): 7.7 10^9/l
GRAN ([3]; male, 100 mg/kg oral daily 7 d): 1.47 10^9/l
HCT ([3]; male, 100 mg/kg oral daily 7 d): 44.7%
HGB ([3]; male, 100 mg/kg oral daily 7 d): 15.1 g/dL
LYM ([3]; male, 100 mg/kg oral daily 7 d): 6.9 10^9/l
MCH ([3]; male, 100 mg/kg oral daily 7 d): 19.8 pg
MCHC ([3]; male, 100 mg/kg oral daily 7 d): 33.8 g/dL
MCV ([3]; male, 100 mg/kg oral daily 7 d): 58.8 fL
MONO ([3]; male, 100 mg/kg oral daily 7 d): 0.17 10^9/l
PLT ([3]; male, 100 mg/kg oral daily 7 d): 990 10^9/l
RBC ([3]; male, 100 mg/kg oral daily 7 d): 7.63 10^12/l
RDW % ([3]; male, 100 mg/kg oral daily 7 d): 14.6%
WBC ([3]; male, 100 mg/kg oral daily 7 d): 8.5 10^9/l
GRAN ([3]; male, 300 mg/kg oral daily 7 d): 1.17 10^9/l
HCT ([3]; male, 300 mg/kg oral daily 7 d): 45.6%
HGB ([3]; male, 300 mg/kg oral daily 7 d): 15.4 g/dL
LYM ([3]; male, 300 mg/kg oral daily 7 d): 5.8 10^9/l
MCH ([3]; male, 300 mg/kg oral daily 7 d): 19.7 pg
MCHC ([3]; male, 300 mg/kg oral daily 7 d): 33.8 g/dL
MCV ([3]; male, 300 mg/kg oral daily 7 d): 58.4 fL
MONO ([3]; male, 300 mg/kg oral daily 7 d): 0.17 10^9/l
PLT ([3]; male, 300 mg/kg oral daily 7 d): 1046 10^9/l
RBC ([3]; male, 300 mg/kg oral daily 7 d): 7.80 10^12/l
RDW % ([3]; male, 300 mg/kg oral daily 7 d): 14.4%
WBC ([3]; male, 300 mg/kg oral daily 7 d): 7.2 10^9/l
